Data reported in PubChem BioAssay AID1963843 (Molecular Pharmacology Branch, DTP, NCI, 2024).

System: 616215-338-R-J1-PDC complex spheroid viability
Experiment: Anticancer human tumor 616215-338-R-J1-PDC patient-derived colon adenocarcinoma cell line growth inhibition [POLQ]
Settings: for IC50: curve of first compound; for viability, T/C: stronger effect = lower value; active means viability on the fitted dose curve at most 10% of control; inactive means the rest
Description: Multicellular complex tumor spheroid response to Polymerase (POL) inhibitors (novobiocin, ART-558, RP6685) in combination with a variety of drugs and investigational agents in selected tumor cell lines
The POL inhibitors (novobiocin, ART-558, and RP6685) were evaluated both individually and in combination with standard of care and investigational anticancer small molecules within a complex spheroid model of solid tumors. . Complex spheroids include a stromal component modeled by human endothelial cells (HUVEC) and fibroblasts modeled by human mesenchymal stem cells (MSCs). The concentration ranges selected for each drug and investigational agent were based upon clinically achievable concentrations if the clinical Cmax of the agent was known.
Compounds. The drugs and investigational agents: novobiocin (NSC847541), ART-558 (NSC835418), RP-6685 (NSC848927), peposertib (NSC802822), ceralasertib (NSC780249), elimusertib (NSC800525), camonsertib (NSC841442), AZD-1390 (NSC803789), olaparib (NSC753686), talazoparib (NSC767125), rucaparib (NSC756644), sotorasib (NSC818433), MRTX-1133 (NSC836407), SN-38 (NSC673596), topotecan (NSC609699), epotoside (NSC141540), doxorubicin (NSC123127), gemcitabine (NSC613327), 5-fluorouracil (NSC19893), paclitaxel (NSC125973), vemurafenib (NSC761431), MSA-2 (NSC828583), SN-011 (NSC837082), adavosertib (NSC754352), prexasertib (NSC758257), carboplatin (NSC241240) and oxaliplatin (NSC266046), were obtained from the National Cancer Institute (NCI) Developmental Therapeutics Program Chemical Repository (21). The FDA-approved anticancer drug set is available from the Developmental Therapeutics Program at https://dtp.cancer.gov/organization/dscb/obtaining/. […] The stock solutions were prepared in dimethyl sulfoxide (DMSO, Sigma-Aldrich, St. Louis, MO, cat. D2650), except for the platinum compounds which were prepared in saline (Quality Biological, Gaithersburg, MD, cat. 114-055-101), at 800-fold the tested concentration and stored at -70 degrees C prior to their use. All drugs and investigational agents were tested over a range starting from a high concentration at or near the clinical Cmax and decreasing in half-log increments. If the clinical Cmax for an agent had not been determined, the highest concentration tested was 10 microM, except for SN-38, which was tested at a high concentration of 1 microM.
Cell Culture. All cells were maintained in an incubator at 37 degrees C and 5% CO2 with 95% humidity. The PDC lines were cultured according to standard operating procedures established by the NCI PDMR (https://pdmr.cancer.gov). Table 3 of the manuscript, lists the cell lines along with the number of the three cell types plated to form the mct-spheroids and media for tumor cell growth. After thawing, all PDC lines, except 997537-175-T-J1-PDC and 415267-285-R-J2-PDC, were cultured in Matrigel-coated flasks prepared with a working solution of 1X Ham's F-12 nutrient mix, without supplementation (Thermo Fisher Scientific, cat. 11765054), 100 U/mL penicillin-streptomycin (Thermo Fisher Scientific, cat. 15140122), and 2.5% Matrigel (Corning Inc., Corning, NY, cat. 354248) for the first three passages. The two PDC lines 997537-175-T-J1-PDC and 415267-285-R-J2-PDC were cultured on uncoated flasks. The 857933-349-R-J2-PDC line was cultured in 6C/Colon 1B media containing advanced DMEM/F-12 (Thermo Fisher Scientific, cat. 12634028), 10 mM HEPES (Thermo Fisher Scientific, cat. 15630080), 1X GlutaMAX supplement (Thermo Fisher Scientific, cat. 35050061), 0.1 mg/mL primocin (InvivoGen, San Diego, CA, cat. ant-pm-2), 10% defined fetal bovine serum, heat inactivated (HyClone Laboratories Inc., Logan, UT, cat. SH30070.03HI), 50% L-WRN conditioned media (ATCC, cat. CRL-3276), 1.25 mM N-Acetyl-L-cysteine (Sigma-Aldrich, cat. A9165), 10 mM nicotinamide (Sigma-Aldrich, cat. N0636), 1X B-27 supplement (Thermo Fisher Scientific, cat. 17504044), 1X N-2 supplement (Thermo Fisher Scientific, cat. […]

[1] = second compound 0.0316 µM, first compound 0.0316 µM
[2] = second compound 0.0316 µM, first compound 0.1 µM
[3] = second compound 0.0316 µM, first compound 0.316 µM
[4] = second compound 0.0316 µM, first compound 1 µM
[5] = second compound 0.0316 µM, first compound 3.16 µM
[6] = second compound 0.0316 µM, first compound 10 µM
[7] = second compound 0.1 µM, first compound 0.0316 µM
[8] = second compound 0.1 µM, first compound 0.1 µM
[9] = second compound 0.1 µM, first compound 0.316 µM
[10] = second compound 0.1 µM, first compound 1 µM
[11] = second compound 0.1 µM, first compound 3.16 µM
[12] = second compound 0.1 µM, first compound 10 µM
[13] = second compound 0.316 µM, first compound 0.0316 µM
[14] = second compound 0.316 µM, first compound 0.1 µM
[15] = second compound 0.316 µM, first compound 0.316 µM
[16] = second compound 0.316 µM, first compound 1 µM
[17] = second compound 0.316 µM, first compound 3.16 µM
[18] = second compound 0.316 µM, first compound 10 µM
[19] = second compound 1 µM, first compound 0.0316 µM
[20] = second compound 1 µM, first compound 0.1 µM
[21] = second compound 1 µM, first compound 0.316 µM
[22] = second compound 1 µM, first compound 1 µM
[23] = second compound 1 µM, first compound 3.16 µM
[24] = second compound 1 µM, first compound 10 µM
[25] = second compound 3.16 µM, first compound 0.0316 µM
[26] = second compound 3.16 µM, first compound 0.1 µM
[27] = second compound 3.16 µM, first compound 0.316 µM
[28] = second compound 3.16 µM, first compound 1 µM
[29] = second compound 3.16 µM, first compound 3.16 µM
[30] = second compound 3.16 µM, first compound 10 µM
[31] = second compound 10 µM, first compound 0.0316 µM
[32] = second compound 10 µM, first compound 0.1 µM
[33] = second compound 10 µM, first compound 0.316 µM
[34] = second compound 10 µM, first compound 1 µM
[35] = second compound 10 µM, first compound 3.16 µM
[36] = second compound 10 µM, first compound 10 µM
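Further: spheroids exposed to compounds for one week before readout.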
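Wherever viability, T/C is given: percent viability relative to DMSO vehicle wells taken as 100%.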

C#Cc1c(F)ccc2cc(O)cc(-c3ncc4c(N5CC6CCC(C5)N6)nc(OCC56CCCN5CC(F)C6)nc4c3F)c12 (centres undefined) + COC1C(OC(N)=O)C(O)C(Oc2ccc3c(O)c(NC(=O)c4ccc(O)c(CC=C(C)C)c4)c(=O)oc3c2C)OC1(C)C
> 10 µM: IC50 (second compound 0.0316 µM) | IC50 (second compound 0.1 µM) | IC50 (second compound 0.316 µM) | IC50 (second compound 1 µM) | IC50 (second compound 3.16 µM) | IC50 (second compound 10 µM)
inactive: viability, T/C [1] 108% | viability, T/C [2] 109% | viability, T/C [3] 101% | viability, T/C [4] 112% | viability, T/C [5] 113% | viability, T/C [6] 79.2% | viability, T/C [7] 103% | viability, T/C [8] 105% | viability, T/C [9] 98.2% | viability, T/C [10] 108% | viability, T/C [11] 95.8% | viability, T/C [12] 64.1% | viability, T/C [13] 110% | viability, T/C [14] 102% | viability, T/C [15] 110% | viability, T/C [16] 105% | viability, T/C [17] 103% | viability, T/C [18] 58.1% | viability, T/C [19] 105% | viability, T/C [20] 108% | viability, T/C [21] 109% | viability, T/C [22] 94.7% | viability, T/C [23] 103% | viability, T/C [24] 71.3% | viability, T/C [25] 105% | viability, T/C [26] 109% | viability, T/C [27] 103% | viability, T/C [28] 110% | viability, T/C [29] 104% | viability, T/C [30] 64% | viability, T/C [31] 94.5% | viability, T/C [32] 103% | viability, T/C [33] 109% | viability, T/C [34] 106% | viability, T/C [35] 100% | viability, T/C [36] 82.6%

CCc1cc2c(N3CCc4c(cc(Cn5ccnc5)cc4-c4cn(C)nc4C(F)(F)F)C3=O)cc(C)nc2c(OC)n1 + COC1C(OC(N)=O)C(O)C(Oc2ccc3c(O)c(NC(=O)c4ccc(O)c(CC=C(C)C)c4)c(=O)oc3c2C)OC1(C)C
8.55 µM: IC50 (second compound 1 µM)
8.7 µM: IC50 (second compound 0.0316 µM)
9.28 µM: IC50 (second compound 10 µM)
6.27 µM: IC50 (second compound 0.316 µM)
inactive: viability, T/C [1] 101% | viability, T/C [2] 109% | viability, T/C [3] 109% | viability, T/C [4] 110% | viability, T/C [5] 60.5% | viability, T/C [6] 48.6% | viability, T/C [7] 106% | viability, T/C [8] 111% | viability, T/C [9] 99.5% | viability, T/C [10] 92.9% | viability, T/C [11] 64.6% | viability, T/C [12] 48.8% | viability, T/C [13] 106% | viability, T/C [14] 109% | viability, T/C [15] 99.7% | viability, T/C [16] 91% | viability, T/C [17] 59.8% | viability, T/C [18] 43.1% | viability, T/C [19] 113% | viability, T/C [20] 105% | viability, T/C [21] 104% | viability, T/C [22] 85.1% | viability, T/C [23] 57% | viability, T/C [24] 49.2% | viability, T/C [25] 113% | viability, T/C [26] 110% | viability, T/C [27] 102% | viability, T/C [28] 86.6% | viability, T/C [29] 76% | viability, T/C [30] 44.2% | viability, T/C [31] 115% | viability, T/C [32] 99.2% | viability, T/C [33] 95% | viability, T/C [34] 77.3% | viability, T/C [35] 53.8% | viability, T/C [36] 51.8%
9.03 µM: IC50 (second compound 0.1 µM)
8.18 µM: IC50 (second compound 3.16 µM)
